Numbered stars: 1 amine (or outer) side, 2 acyl side, 3 side chain; on linkers, the order of the positions; unused ones are H or OH. Square brackets hold non-standard residues; d marks the D form. Peptide text beside a SMILES is read from it. Trp(βS-Me,7-OMe) = COc1cccc2c([C@H](C)[C@H](N)C(=O)O)c[nH]c12; X21 = COc1cccc2c([C@H](C)[C@H](N[*:1])C(=O)[*:2])c(C)[nH]c12; Trp(7-Br) = N[C@@H](Cc1c[nH]c2c(Br)cccc12)C(=O)O; Trp(7-CN) = N#Cc1cccc2c(C[C@H](N)C(=O)O)c[nH]c12; Trp(7-Cl) = N[C@@H](Cc1c[nH]c2c(Cl)cccc12)C(=O)O; Phe(3-CONH2) = NC(=O)c1cccc(C[C@H](N)C(=O)O)c1; Phe(3-COOH) = N[C@@H](Cc1cccc(C(=O)O)c1)C(=O)O; Phe(4-CONH2) = NC(=O)c1ccc(C[C@H](N)C(=O)O)cc1; Phe(4-COOH) = N[C@@H](Cc1ccc(C(=O)O)cc1)C(=O)O; X30 = O=C([C@@H](N[*:1])[C@H](O)c1ccncc1)[*:2]; 4Pal(3S-Me) = C[C@@H](c1ccncc1)[C@H](N)C(=O)O; Trp(7-aza) = N[C@@H](Cc1c[nH]c2ncccc12)C(=O)O; dPro(trans-4-F) = O=C(O)[C@H]1C[C@H](F)CN1; Pip(5R-OH) = O=C(O)[C@@H]1CC[C@@H](O)CN1; X1 = O=C([C@@H]1CC[C@H](N[*:1])C1)[*:2]; X31 = O=C(CN(CCc1nnco1)[*:1])[*:2]; Pip(4-aza) = O=C(O)[C@@H]1CNCCN1; 4Pal = N[C@@H](Cc1ccncc1)C(=O)O; NMeE = CN[C@@H](CCC(=O)O)C(=O)O; dHyp = O=C(O)[C@H]1C[C@H](O)CN1; Cit = NC(=O)NCCC[C@H](N)C(=O)O; Ahp(2) = CCCCC[C@H](N)C(=O)O; αMeS = C[C@](N)(CO)C(=O)O; Nle = CCCC[C@H](N)C(=O)O; Sar = CNCC(=O)O
Columns and labels:
[1] = target: T1, human TNFR1 extracellular domain (ECD) protein (Homo sapiens, UniProt P19438); assay: SPR binding affinity to captured human TNFR1 ECD
T1 construct: HRV 3C protease cleavage site (C); 6His (C, cleaved yes); made in house; host or cells: Sf21 insect cells (baculovirus), secreted
T1 sequence (P19438 30-211): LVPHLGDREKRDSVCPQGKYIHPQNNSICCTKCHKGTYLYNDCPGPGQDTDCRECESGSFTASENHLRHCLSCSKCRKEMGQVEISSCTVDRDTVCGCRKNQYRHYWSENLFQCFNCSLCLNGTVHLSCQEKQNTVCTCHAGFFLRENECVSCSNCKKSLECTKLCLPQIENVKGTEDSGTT
Outline: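 Peptides are tested against captured biotin-tagged human TNFR1 ECD, with parallel TNFR2 ECD binding to check selectivity. Buffer: 10 mM HEPES pH 7.4, 150 mM NaCl, 3 mM EDTA, 0.05% P20, 2% DMSO.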

[2] = target: T2, TNFα-induced NF-κB signal transduction pathway (TNFR1 signaling) in THP-1 cells (Homo sapiens, UniProt P19438); assay: THP-1 Lucia NF-κB reporter cell assay, inhibition of TNFα-induced NF-κB signaling; assay type: cell-based; conditions: THP-1 NF-κB Lucia reporter cells, 10 ng/mL TNFα, 16-18 h, secreted luciferase; read-out: THP-1 IC50
T2 sequence (P19438 30-455): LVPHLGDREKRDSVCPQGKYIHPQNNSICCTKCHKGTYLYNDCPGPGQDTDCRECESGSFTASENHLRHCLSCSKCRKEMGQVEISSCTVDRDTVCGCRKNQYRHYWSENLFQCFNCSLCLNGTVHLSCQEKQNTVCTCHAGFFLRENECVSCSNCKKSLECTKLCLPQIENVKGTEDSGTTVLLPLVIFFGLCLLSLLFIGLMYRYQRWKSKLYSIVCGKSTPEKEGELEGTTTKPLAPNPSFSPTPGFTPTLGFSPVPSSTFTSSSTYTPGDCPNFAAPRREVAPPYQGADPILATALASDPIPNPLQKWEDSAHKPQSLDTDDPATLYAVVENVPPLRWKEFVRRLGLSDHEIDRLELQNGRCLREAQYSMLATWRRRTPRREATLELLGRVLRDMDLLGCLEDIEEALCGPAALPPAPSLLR
Outline: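 THP-1 Lucia NF-κB cells, 20k/well, no selection antibiotics; peptide pre-inc 1 h 37 °C; + recombinant human TNFα 10 ng/mL final; o.n.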

Compound | Kd [1] | IC50 [2]
CCCC[C@@H]1NC(=O)[C@@H]2CC[C@@H](C2)NC(=O)[C@H]([C@@H](C)c2c[nH]c3c(OC)cccc23)NC(=O)CN(C)C(=O)[C@H](Cc2ccc(C(N)=O)cc2)NC(=O)[C@H](Cc2ccc(C(N)=O)cc2)NC(=O)[C@](C)(CO)NC(=O)[C@H](Cc2c[nH]c3c(C#N)cccc23)NC(=O)[C@H](Cc2ccc(C(=O)O)cc2)NC(=O)[C@H](CC(N)=O)NC(=O)[C@H]2C[C@H](OC)CN2C(=O)[C@H](Cc2c[nH]c3ccccc23)NC(=O)[C@@H]2CC[C@@H](O)CN2C(=O)[C@H](Cc2ccncc2)NC1=O [SEQ ID NO. 14] (cyclo([4Pal][Pip(5R-OH)]W[dHyp](Me)N[Phe(4-COOH)][Trp(7-CN)][αMeS][Phe(4-CONH2)][Phe(4-CONH2)][Sar][Trp(βS-Me,7-OMe)][X1][Nle])) | 0.02 nM | 0.8 nM
CCCCC[C@@H]1NC(=O)[C@@H]2CC[C@@H](C2)NC(=O)[C@H]([C@@H](C)c2c[nH]c3c(OC)cccc23)NC(=O)CN(C)C(=O)[C@H](Cc2ccc(C(N)=O)cc2)NC(=O)[C@H](Cc2ccc(C(N)=O)cc2)NC(=O)[C@](C)(CO)NC(=O)[C@H](Cc2c[nH]c3c(C#N)cccc23)NC(=O)[C@H](Cc2ccc(C(=O)O)cc2)NC(=O)[C@H](CC(N)=O)NC(=O)[C@H]2C[C@H](O)CN2C(=O)[C@H](Cc2c[nH]c3ccccc23)NC(=O)[C@H](CO)NC(=O)[C@H]([C@H](O)c2ccncc2)NC1=O [SEQ ID NO. 16] (cyclo([Ahp(2)][X30]SW[dHyp]N[Phe(4-COOH)][Trp(7-CN)][αMeS][Phe(4-CONH2)][Phe(4-CONH2)][Sar][Trp(βS-Me,7-OMe)][X1])) | 0.09 nM | 0.6 nM
CCCC[C@@H]1NC(=O)[C@@H]2CC[C@@H](C2)NC(=O)[C@H]([C@@H](C)c2c[nH]c3c(OC)cccc23)NC(=O)CN(C)C(=O)[C@H](Cc2cccc(C(=O)O)c2)NC(=O)[C@H](Cc2ccc(C(N)=O)cc2)NC(=O)[C@](C)(CO)NC(=O)[C@H](Cc2c[nH]c3c(Cl)cccc23)NC(=O)[C@H](Cc2ccc(C(=O)O)cc2)NC(=O)[C@H](CC(N)=O)NC(=O)[C@H]2C[C@H](O)CN2C(=O)[C@H](Cc2c[nH]c3ccccc23)NC(=O)[C@@H]2CC[C@@H](O)CN2C(=O)[C@H](Cc2ccncc2)NC1=O [SEQ ID NO. 17] (cyclo([4Pal][Pip(5R-OH)]W[dHyp]N[Phe(4-COOH)][Trp(7-Cl)][αMeS][Phe(4-CONH2)][Phe(3-COOH)][Sar][Trp(βS-Me,7-OMe)][X1][Nle])) | 0.04 nM | 0.8 nM
CCCC[C@@H]1NC(=O)[C@@H]2CC[C@@H](C2)NC(=O)[C@H]([C@@H](C)c2c[nH]c3c(OC)cccc23)NC(=O)CN(C)C(=O)[C@H](Cc2ccc(C(N)=O)cc2)NC(=O)[C@H](Cc2ccc(C(N)=O)cc2)NC(=O)[C@](C)(CO)NC(=O)[C@H](Cc2c[nH]c3c(C#N)cccc23)NC(=O)[C@H](Cc2ccc(C(=O)O)cc2)NC(=O)[C@H](CC(N)=O)NC(=O)[C@H](CCC(=O)O)N(C)C(=O)[C@H](Cc2c[nH]c3ccccc23)NC(=O)[C@@H]2CC[C@@H](O)CN2C(=O)[C@H](Cc2ccncc2)NC1=O [SEQ ID NO. 19] (cyclo([4Pal][Pip(5R-OH)]W[NMeE]N[Phe(4-COOH)][Trp(7-CN)][αMeS][Phe(4-CONH2)][Phe(4-CONH2)][Sar][Trp(βS-Me,7-OMe)][X1][Nle])) | 0.07 nM | 0.6 nM
CCCC[C@@H]1NC(=O)[C@@H]2CC[C@@H](C2)NC(=O)[C@H]([C@@H](C)c2c[nH]c3c(OC)cccc23)NC(=O)CN(C)C(=O)[C@H](Cc2ccc(C(=O)O)cc2)NC(=O)[C@H](Cc2ccc(C(N)=O)cc2)NC(=O)[C@](C)(CO)NC(=O)[C@H](Cc2c[nH]c3c(Cl)cccc23)NC(=O)[C@H](Cc2ccncc2)NC(=O)[C@H](CC(N)=O)NC(=O)[C@H]2C[C@H](F)CN2C(=O)[C@H](Cc2c[nH]c3ccccc23)NC(=O)[C@@H]2CC[C@@H](O)CN2C(=O)[C@H](Cc2ccncc2)NC1=O [SEQ ID NO. 101] (cyclo([4Pal][Trp(7-Cl)][αMeS][Phe(4-CONH2)][Phe(4-COOH)][Sar][Trp(βS-Me,7-OMe)][X1][Nle][4Pal][Pip(5R-OH)]W[dPro(trans-4-F)]N)) | 0.05 nM | 0.9 nM
CCCC[C@@H]1NC(=O)[C@@H]2CC[C@@H](C2)NC(=O)[C@H]([C@@H](C)c2c(C)[nH]c3c(OC)cccc23)NC(=O)CN(C)C(=O)[C@H](Cc2ccc(C(=O)O)cc2)NC(=O)[C@H](Cc2ccc(C(N)=O)cc2)NC(=O)[C@](C)(CO)NC(=O)[C@H](Cc2c[nH]c3c(Cl)cccc23)NC(=O)[C@H](Cc2ccc(C(=O)O)cc2)NC(=O)[C@H](CC(N)=O)NC(=O)[C@H]2C[C@H](O)CN2C(=O)[C@H](Cc2c[nH]c3ccccc23)NC(=O)[C@@H]2CC[C@@H](O)CN2C(=O)[C@H](Cc2ccncc2)NC1=O [SEQ ID NO. 106] (cyclo([4Pal][Pip(5R-OH)]W[dHyp]N[Phe(4-COOH)][Trp(7-Cl)][αMeS][Phe(4-CONH2)][Phe(4-COOH)][Sar][X21][X1][Nle])) | 0.04 nM | 0.6 nM
CCCCC[C@@H]1NC(=O)[C@@H]2CC[C@@H](C2)NC(=O)[C@H]([C@@H](C)c2c[nH]c3c(OC)cccc23)NC(=O)CN(C)C(=O)[C@H](Cc2cccc(C(N)=O)c2)NC(=O)[C@H](Cc2ccc(C(N)=O)cc2)NC(=O)[C@](C)(CO)NC(=O)[C@H](Cc2c[nH]c3c(Br)cccc23)NC(=O)[C@H](Cc2ccc(C(=O)O)cc2)NC(=O)[C@H](CC(N)=O)NC(=O)[C@H]2C[C@H](O)CN2C(=O)[C@H](Cc2c[nH]c3ccccc23)NC(=O)[C@@H]2CNCCN2C(=O)[C@H](Cc2ccncc2)NC1=O [SEQ ID NO. 109] (cyclo([4Pal][Pip(4-aza)]W[dHyp]N[Phe(4-COOH)][Trp(7-Br)][αMeS][Phe(4-CONH2)][Phe(3-CONH2)][Sar][Trp(βS-Me,7-OMe)][X1][Ahp(2)])) | 0.05 nM | 0.8 nM
CCCCC[C@@H]1NC(=O)[C@@H]2CC[C@@H](C2)NC(=O)[C@H]([C@@H](C)c2c[nH]c3c(OC)cccc23)NC(=O)CN(C)C(=O)[C@H](Cc2ccc(C(N)=O)cc2)NC(=O)[C@H](Cc2ccc(C(N)=O)cc2)NC(=O)[C@](C)(CO)NC(=O)[C@H](Cc2c[nH]c3c(C#N)cccc23)NC(=O)[C@H](Cc2ccc(C(=O)O)cc2)NC(=O)[C@H](CC(N)=O)NC(=O)[C@H]2C[C@H](O)CN2C(=O)[C@H](Cc2c[nH]c3ccccc23)NC(=O)[C@H](CCCNC(N)=O)NC(=O)[C@H]([C@@H](C)c2ccncc2)NC1=O [SEQ ID NO. 110] (cyclo([Ahp(2)][4Pal(3S-Me)][Cit]W[dHyp]N[Phe(4-COOH)][Trp(7-CN)][αMeS][Phe(4-CONH2)][Phe(4-CONH2)][Sar][Trp(βS-Me,7-OMe)][X1])) | 0.14 nM | 1.2 nM
CCCC[C@@H]1NC(=O)[C@@H]2CC[C@@H](C2)NC(=O)[C@H]([C@@H](C)c2c[nH]c3c(OC)cccc23)NC(=O)CN(C)C(=O)[C@H](Cc2ccc(C(N)=O)cc2)NC(=O)[C@H](Cc2ccc(C(N)=O)cc2)NC(=O)[C@](C)(CO)NC(=O)[C@H](Cc2c[nH]c3c(C#N)cccc23)NC(=O)[C@H](Cc2ccc(C(=O)O)cc2)NC(=O)[C@H](CC(N)=O)NC(=O)[C@H]2C[C@H](F)CN2C(=O)[C@H](Cc2c[nH]c3ccccc23)NC(=O)[C@@H]2CC[C@@H](O)CN2C(=O)[C@H](Cc2ccncc2)NC1=O [SEQ ID NO. 114] (cyclo([4Pal][Pip(5R-OH)]W[dPro(trans-4-F)]N[Phe(4-COOH)][Trp(7-CN)][αMeS][Phe(4-CONH2)][Phe(4-CONH2)][Sar][Trp(βS-Me,7-OMe)][X1][Nle])) | 0.02 nM | 0.9 nM
CCCC[C@@H]1NC(=O)[C@@H]2CC[C@@H](C2)NC(=O)[C@H]([C@@H](C)c2c[nH]c3c(OC)cccc23)NC(=O)CN(C)C(=O)[C@H](Cc2ccc(C(=O)O)cc2)NC(=O)[C@H](Cc2ccc(C(N)=O)cc2)NC(=O)[C@](C)(CO)NC(=O)[C@H](Cc2c[nH]c3c(C#N)cccc23)NC(=O)[C@H](Cc2ccncc2)NC(=O)[C@H](CC(N)=O)NC(=O)CN(CCc2nnco2)C(=O)[C@H](Cc2c[nH]c3ncccc23)NC(=O)[C@@H]2CC[C@@H](O)CN2C(=O)[C@H](Cc2ccncc2)NC1=O [SEQ ID NO. 121] (cyclo([4Pal][Trp(7-CN)][αMeS][Phe(4-CONH2)][Phe(4-COOH)][Sar][Trp(βS-Me,7-OMe)][X1][Nle][4Pal][Pip(5R-OH)][Trp(7-aza)][X31]N)) | 0.02 nM | 0.9 nM

From US20240287138A1, “CYCLIC PEPTIDES FOR INHIBITING TNF RECEPTOR 1 ACTIVITY” (Merck Sharp & Dohme LLC, priority 2023, published 2024)
